Source: the NIST ThermoML archive (doi:10.1021/acs.jced.5b00197)

Assay: refractive index (other wavelength) (dimensionless); xn = mol fraction of the nth substance listed
Conditions: 94.64 kPa, Liquid, Standard Abbe refractometry

CC(=O)O [acetic acid] + Cc1ccccc1
refractive index
Conditions | Wavelength=404.7 nm | Wavelength=435.8 nm | Wavelength=486.1 nm | Wavelength=546.1 nm | Wavelength=587.6 nm | Wavelength=632.8 nm | Wavelength=644 nm | Wavelength=706.5 nm
298.15 K, x1 = 0.146 | – | – | – | – | 1.48187 | 1.47884 | 1.47816 | 1.47502
298.15 K, x1 = 0.277 | – | – | – | – | 1.46821 | 1.46538 | 1.46473 | 1.46178
298.15 K, x1 = 0.397 | – | – | – | – | 1.45629 | 1.45365 | 1.45303 | 1.45023
298.15 K, x1 = 0.506 | – | – | – | – | 1.44342 | 1.44095 | 1.44038 | 1.43776
298.15 K, x1 = 0.605 | – | – | – | – | 1.43125 | 1.42896 | 1.42842 | 1.42598
298.15 K, x1 = 0.697 | – | – | – | – | 1.41881 | 1.41669 | 1.41619 | 1.4139
298.15 K, x1 = 0.782 | – | – | – | – | 1.40658 | 1.40463 | 1.40417 | 1.40417
298.15 K, x1 = 0.859 | – | – | – | – | 1.3946 | 1.39284 | 1.39242 | 1.39049
298.15 K, x1 = 0.897 | – | – | – | – | 1.38527 | 1.38364 | 1.38326 | 1.38144
298.15 K, x1 = 0.932 | – | – | – | – | 1.38035 | 1.37878 | 1.37842 | 1.37669
298.15 K, x1 = 0.967 | – | – | – | – | 1.37526 | 1.37375 | 1.37341 | 1.37177
298.15 K, x1 = 1 | – | – | – | – | 1.37018 | 1.36876 | 1.36844 | 1.36686
303.15 K, x1 = 0.146 | 1.50611 | 1.49841 | 1.48963 | 1.48261 | 1.47918 | 1.47618 | 1.47549 | 1.47237
303.15 K, x1 = 0.277 | 1.4905 | 1.48332 | 1.47522 | 1.46865 | 1.46547 | 1.46268 | 1.46203 | 1.45908
303.15 K, x1 = 0.397 | 1.47698 | 1.47026 | 1.46273 | 1.45661 | 1.45363 | 1.451 | 1.45039 | 1.44761
303.15 K, x1 = 0.506 | 1.46241 | 1.45621 | 1.44918 | 1.44352 | 1.44075 | 1.4383 | 1.43773 | 1.43513
303.15 K, x1 = 0.605 | 1.44837 | 1.44266 | 1.43626 | 1.43107 | 1.42851 | 1.42623 | 1.42569 | 1.42326
303.15 K, x1 = 0.697 | 1.4344 | 1.42918 | 1.42331 | 1.41861 | 1.41625 | 1.41415 | 1.41365 | 1.41136
303.15 K, x1 = 0.782 | 1.42104 | 1.41634 | 1.41106 | 1.40674 | 1.4046 | 1.40267 | 1.40221 | 1.4001
303.15 K, x1 = 0.859 | 1.40698 | 1.40281 | 1.39813 | 1.3943 | 1.39235 | 1.39059 | 1.39018 | 1.38824
303.15 K, x1 = 0.897 | 1.39635 | 1.3926 | 1.38838 | 1.3849 | 1.38309 | 1.38146 | 1.38109 | 1.37929
303.15 K, x1 = 0.932 | 1.3908 | 1.38725 | 1.38329 | 1.37997 | 1.37826 | 1.37671 | 1.37634 | 1.37461
303.15 K, x1 = 0.967 | 1.38499 | 1.38168 | 1.37795 | 1.37485 | 1.37321 | 1.37172 | 1.37138 | 1.36976
303.15 K, x1 = 1 | 1.37917 | 1.37611 | 1.37261 | 1.36968 | 1.36815 | 1.36675 | 1.36643 | 1.36485
